Data published in patent US20240150340A1, “CDK Inhibitors And Their Use As Pharmaceuticals” (Prelude Therapeutics Incorporated, priority 2022, published 2024).
pIC50: −log10 of the molar value.

How the values were obtained:
CDK2/Cyclin E2 = molecular target: T1, CDK2/Cyclin E2 (Homo sapiens, UniProt P24941); assay: CDK2/CyclinE2 Enzymatic Activity Assay (TR-FRET); type: biochemical; settings: ATP 1 mM final, read-out: CDK2_E1 IC50
T1 construct: Recombinant protein complex CDK2/Cyclin E2, expressed from insect cell, was purchased from ProQinase
In short: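 Recombinant insect-cell CDK2/Cyclin E2 (1 nM) phosphorylated ULight-4E-BP1 (50 nM) with 1 mM ATP in HEPES pH 7.4 buffer, after 20 min compound preincubation; MgCl2 (10 mM) started the 45 min reaction at 37° C. Europium anti-phospho-4E-BP1 TR-FRET read; 9-dose IC50 by 4-parameter fit.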

OVCAR3 p-RB = assay: pRB ICW Assay in OVCAR3 Cells; type: cell-based; settings: Homo sapiens, OVCAR-3, incubated with compound for 2 hours
In short: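 OVCAR3 cells were treated 2 h at 37° C. with a 9-point half-log compound series, duplicate wells, with 10 μM reference compound as maximum inhibition. Fixed, permeabilized cells were stained with anti-phospho-RB plus DRAQ5 and imaged at 700/800 nm (In-Cell Western).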

CDK4/Cyclin D1 = molecular target: T2, CDK4/Cyclin D1 (Homo sapiens, UniProt P11802); assay: CDK4/CyclinD1 Enzymatic Activity Assay (TR-FRET); type: biochemical; settings: ATP 2 mM final, read-out: CDK4_D1 IC50
T2 construct: purchased ProQinase; host or cells: insect cell
T2 sequence (P11802 whole entry): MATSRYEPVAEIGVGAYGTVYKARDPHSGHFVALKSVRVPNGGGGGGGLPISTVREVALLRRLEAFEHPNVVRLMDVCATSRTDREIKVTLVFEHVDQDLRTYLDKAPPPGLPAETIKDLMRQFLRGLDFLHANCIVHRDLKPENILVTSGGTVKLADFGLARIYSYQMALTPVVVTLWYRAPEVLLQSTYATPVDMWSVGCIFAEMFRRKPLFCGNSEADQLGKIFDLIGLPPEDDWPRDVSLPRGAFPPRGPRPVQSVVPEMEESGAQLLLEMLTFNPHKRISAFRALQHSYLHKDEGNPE
T2 sequence (P24385 whole entry partner): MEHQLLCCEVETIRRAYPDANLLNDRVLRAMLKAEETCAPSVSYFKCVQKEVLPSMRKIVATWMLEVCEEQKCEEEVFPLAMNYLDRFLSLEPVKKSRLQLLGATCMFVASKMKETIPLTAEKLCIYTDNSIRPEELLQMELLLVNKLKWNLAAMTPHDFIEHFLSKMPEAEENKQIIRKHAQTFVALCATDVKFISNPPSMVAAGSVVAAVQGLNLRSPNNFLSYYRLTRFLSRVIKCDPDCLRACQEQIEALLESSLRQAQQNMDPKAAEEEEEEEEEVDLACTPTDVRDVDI
In short: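 Insect-cell-expressed CDK4/Cyclin D1 (1 nM) with ULight-4E-BP1 (100 nM) and 2 mM ATP in HEPES pH 7.4; 9-dose 3-fold compound series preincubated 20 min, reaction started with 10 mM MgCl2, 45 min at 37° C. Europium anti-P-4E-BP1 TR-FRET read; IC50 from 4-parameter Hill fit.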

SMILES | pIC50 (CDK2/Cyclin E2) | pIC50 (OVCAR3 p-RB) | pIC50 (CDK4/Cyclin D1)
Cc1sc(-c2nc(NC3CCN(S(=O)(=O)c4cnn(C)c4)CC3)ncc2C(F)(F)F)cc1C(N)=O [Example 71, 2-methyl-5-(2-((1-((1-methyl-1H-pyrazol-4-yl)sulfonyl)piperidin-4-yl)amino)-5-(trifluoromethyl)pyrimidin-4-yl)thiophene-3-carboxamide] | ≥ 7.00 | ≥ 7.00 | ≥ 7.00
Cc1sc(-c2nc(NC3CCN(S(=O)(=O)c4cnn(C)c4)CC3)ncc2C(F)(F)F)cc1C#N [Example 72, 2-methyl-5-(2-((1-((1-methyl-1H-pyrazol-4-yl)sulfonyl)piperidin-4-yl)amino)-5-(trifluoromethyl)pyrimidin-4-yl)thiophene-3-carbonitrile] | ≥ 7.00 | ≥ 7.00 | ≥ 7.00
Cn1cc(S(=O)(=O)N2CCC(Nc3ncc(C(F)(F)F)c(-c4cc(C(N)=O)cs4)n3)CC2)cn1 [Example 74, 5-(2-((1-((1-methyl-1H-pyrazol-4-yl)sulfonyl)piperidin-4-yl)amino)-5-(trifluoromethyl)pyrimidin-4-yl)thiophene-3-carboxamide] | ≥ 7.00 | ≥ 7.00 | ≥ 7.00
COc1cc(-c2nc(NC3CCN(S(=O)(=O)c4cn(C)cn4)CC3)ncc2C(F)(F)F)sc1C [Example 75, 4-(4-methoxy-5-methylthiophen-2-yl)-N-(1-((1-methyl-1H-imidazol-4-yl)sulfonyl)piperidin-4-yl)-5-(trifluoromethyl)pyrimidin-2-amine] | ≥ 7.00 | < 6.30 | < 6.30
Cc1sc(-c2nc(NC3CCN(S(=O)(=O)c4cnn(C)c4)CC3)ncc2C(F)(F)F)cc1C(F)F [Example 79, 4-(4-(difluoromethyl)-5-methylthiophen-2-yl)-N-(1-((1-methyl-1H-pyrazol-4-yl)sulfonyl)piperidin-4-yl)-5-(trifluoromethyl)pyrimidin-2-amine] | ≥ 7.00 | 6.30 to 7.00 | ≥ 7.00
CC(=O)c1cc(-c2nc(NC3CCN(S(=O)(=O)c4cnn(C)c4)CC3)ncc2C(F)(F)F)sc1C [Example 81, 1-(2-methyl-5-(2-((1-((1-methyl-1H-pyrazol-4-yl)sulfonyl)piperidin-4-yl)amino)-5-(trifluoromethyl)pyrimidin-4-yl)thiophen-3-yl)ethan-1-one] | ≥ 7.00 | ≥ 7.00 | ≥ 7.00
Cc1sc(-c2nc(NC3CCN(S(C)(=O)=O)CC3)ncc2C(F)(F)F)cc1C#N [Example 83, 2-methyl-5-(2-((1-(methylsulfonyl)piperidin-4-yl)amino)-5-(trifluoromethyl)pyrimidin-4-yl)thiophene-3-carbonitrile] | ≥ 7.00 | 6.30 to 7.00 | ≥ 7.00
Cc1sc(-c2nc(N[C@H]3CCN(S(=O)(=O)c4cnn(C)c4)C[C@H]3C)ncc2C(F)(F)F)cc1C#N [Example 85, 2-methyl-5-(2-(((3R,4S)-3-methyl-1-((1-methyl-1H-pyrazol-4-yl)sulfonyl)piperidin-4-yl)amino)-5-(trifluoromethyl)pyrimidin-4-yl)thiophene-3-carbonitrile] | ≥ 7.00 | 6.30 to 7.00 | 6.30 to 7.00
Cc1sc(-c2nc(N[C@H]3CCN(S(=O)(=O)c4c[nH]cn4)C[C@H]3C)ncc2C(F)(F)F)cc1C#N [Example 86, 5-(2-(((3R,4S)-1-((1H-imidazol-4-yl)sulfonyl)-3-methylpiperidin-4-yl)amino)-5-(trifluoromethyl)pyrimidin-4-yl)-2-methylthiophene-3-carbonitrile] | ≥ 7.00 | < 6.30 | < 6.30
C[C@@H]1CN(S(=O)(=O)c2cnn(CC#N)c2)CC[C@@H]1Nc1ncc(C(F)(F)F)c(-c2cc(C(N)=O)cs2)n1 [Example 87, 5-(2-(((3R,4S)-1-((1-(Cyanomethyl)-1H-pyrazol-4-yl)sulfonyl)-3-methylpiperidin-4-yl)amino)-5-(trifluoromethyl)pyrimidin-4-yl)thiophene-3-carboxamide] | ≥ 7.00 | ≥ 7.00 | ≥ 7.00
Cc1sc(-c2nc(NC3CCN(S(=O)(=O)c4cnn(CC#N)c4)CC3)ncc2C(F)(F)F)cc1C#N [Example 88, 5-(2-((1-((1-(cyanomethyl)-1H-pyrazol-4-yl)sulfonyl)piperidin-4-yl)amino)-5-(trifluoromethyl)pyrimidin-4-yl)-2-methylthiophene-3-carbonitrile] | ≥ 7.00 | ≥ 7.00 | ≥ 7.00
CC(O)c1cnc(-c2nc(NC3CCN(S(=O)(=O)c4cnn(C)c4)CC3)ncc2C(F)(F)F)s1 (stereo not drawn) [Example 89, 1-(2-(2-((1-((1-Methyl-1H-pyrazol-4-yl)sulfonyl)piperidin-4-yl)amino)-5-(trifluoromethyl)pyrimidin-4-yl)thiazol-5-yl)ethan-1-ol] | ≥ 7.00 | ≥ 7.00 | ≥ 7.00
Cn1cc(S(=O)(=O)N2CCC(Nc3ncc(C(F)(F)F)c(-c4cc(C#N)ns4)n3)CC2)cn1 [Example 91, 5-(2-((1-((1-methyl-1H-pyrazol-4-yl)sulfonyl)piperidin-4-yl)amino)-5-(trifluoromethyl)pyrimidin-4-yl)isothiazole-3-carbonitrile] | ≥ 7.00 | 6.30 to 7.00 | 6.30 to 7.00
Cn1cnc(S(=O)(=O)N2CCC(Nc3ncc(C(F)(F)F)c(-c4nc(C(N)=O)cs4)n3)CC2)c1 [Example 92, 2-(2-((1-((1-Methyl-1H-imidazol-4-yl)sulfonyl)piperidin-4-yl)amino)-5-(trifluoromethyl)pyrimidin-4-yl)thiazole-4-carboxamide] | < 6.30 | < 6.30 | < 6.30
Cc1sc(-c2nc(N[C@H]3CCN(S(=O)(=O)c4cnc(N)s4)C[C@H]3C)ncc2C(F)(F)F)cc1C#N [Example 94, 5-(2-(((3R,4S)-1-((2-aminothiazol-5-yl)sulfonyl)-3-methylpiperidin-4-yl)amino)-5-(trifluoromethyl)pyrimidin-4-yl)-2-methylthiophene-3-carbonitrile] | ≥ 7.00 | 6.30 to 7.00 | < 6.30

Second part, the compound after the results:

pIC50 (CDK2/Cyclin E2) | pIC50 (OVCAR3 p-RB) | pIC50 (CDK4/Cyclin D1) | SMILES
≥ 7.00 | ≥ 7.00 | ≥ 7.00 | CS(=O)(=O)N1CCC(Nc2ncc(C(F)(F)F)c(-c3cc(C(N)=O)cs3)n2)CC1 [Example 73, 5-(2-((1-(methylsulfonyl)piperidin-4-yl)amino)-5-(trifluoromethyl)pyrimidin-4-yl)thiophene-3-carboxamide]
6.30 to 7.00 | < 6.30 | 6.30 to 7.00 | COc1cc(-c2nc(NC3CCN(S(C)(=O)=O)CC3)ncc2C(F)(F)F)sc1C [Example 76, 4-(4-methoxy-5-methylthiophen-2-yl)-N-(1-(methylsulfonyl)piperidin-4-yl)-5-(trifluoromethyl)pyrimidin-2-amine]
≥ 7.00 | < 6.30 | < 6.30 | Cc1cc(-c2nc(NC3CCN(S(=O)(=O)c4cnn(C)c4)CC3)ncc2C(F)(F)F)sn1 [Example 77, N-(1-((1-methyl-1H-pyrazol-4-yl)sulfonyl)piperidin-4-yl)-4-(3-methylisothiazol-5-yl)-5-(trifluoromethyl)pyrimidin-2-amine]
6.30 to 7.00 | < 6.30 | < 6.30 | Cc1cc(-c2nc(NC3CCN(S(C)(=O)=O)CC3)ncc2C(F)(F)F)sn1 [Example 78, 4-(3-methylisothiazol-5-yl)-N-(1-(methylsulfonyl)piperidin-4-yl)-5-(trifluoromethyl)pyrimidin-2-amine]
≥ 7.00 | 6.30 to 7.00 | ≥ 7.00 | Cc1sc(-c2nc(NC3CCN(S(C)(=O)=O)CC3)ncc2C(F)(F)F)cc1C(F)F [Example 80, 4-(4-(difluoromethyl)-5-methylthiophen-2-yl)-N-(1-(methylsulfonyl)piperidin-4-yl)-5-(trifluoromethyl)pyrimidin-2-amine]
≥ 7.00 | < 6.30 | 6.30 to 7.00 | COCc1cc(-c2nc(NC3CCN(S(=O)(=O)c4cnn(C)c4)CC3)ncc2C(F)(F)F)sc1C [Example 82, 4-(4-(methoxymethyl)-5-methylthiophen-2-yl)-N-(1-((1-methyl-1H-pyrazol-4-yl)sulfonyl)piperidin-4-yl)-5-(trifluoromethyl)pyrimidin-2-amine]
≥ 7.00 | ≥ 7.00 | ≥ 7.00 | CS(=O)(=O)N1CCC(Nc2ncc(C(F)(F)F)c(-c3cc(C(N)=O)ns3)n2)CC1 [Example 84, 5-(2-((1-(methylsulfonyl)piperidin-4-yl)amino)-5-(trifluoromethyl)pyrimidin-4-yl)isothiazole-3-carboxamide]
≥ 7.00 | ≥ 7.00 | ≥ 7.00 | CC(O)c1sc(-c2nc(NC3CCN(S(=O)(=O)c4cnn(C)c4)CC3)ncc2C(F)(F)F)cc1C#N (stereo not drawn) [Example 90, 2-(1-Hydroxyethyl)-5-(2-((1-((1-methyl-1H-pyrazol-4-yl)sulfonyl)piperidin-4-yl)amino)-5-(trifluoromethyl)pyrimidin-4-yl)thiophene-3-carbonitrile]
≥ 7.00 | 6.30 to 7.00 | 6.30 to 7.00 | Cc1sc(-c2nc(NC3CCN(S(=O)(=O)c4cnc(N)s4)CC3)ncc2C(F)(F)F)cc1C#N [Example 93, 5-(2-((1-((2-Aminothiazol-5-yl)sulfonyl)piperidin-4-yl)amino)-5-(trifluoromethyl)pyrimidin-4-yl)-2-methylthiophene-3-carbonitrile]
